Holding throughout (format): biochemical
Holding throughout (settings): 10 μM ATP, 60 min, ADP-GLO luminescence
A general note: ADP-Glo first removes unused ATP, then detects ADP through luciferase.

The target in one assay is T1, AXL (Homo sapiens, UniProt P30530).
T1 sequence (P30530 26-894): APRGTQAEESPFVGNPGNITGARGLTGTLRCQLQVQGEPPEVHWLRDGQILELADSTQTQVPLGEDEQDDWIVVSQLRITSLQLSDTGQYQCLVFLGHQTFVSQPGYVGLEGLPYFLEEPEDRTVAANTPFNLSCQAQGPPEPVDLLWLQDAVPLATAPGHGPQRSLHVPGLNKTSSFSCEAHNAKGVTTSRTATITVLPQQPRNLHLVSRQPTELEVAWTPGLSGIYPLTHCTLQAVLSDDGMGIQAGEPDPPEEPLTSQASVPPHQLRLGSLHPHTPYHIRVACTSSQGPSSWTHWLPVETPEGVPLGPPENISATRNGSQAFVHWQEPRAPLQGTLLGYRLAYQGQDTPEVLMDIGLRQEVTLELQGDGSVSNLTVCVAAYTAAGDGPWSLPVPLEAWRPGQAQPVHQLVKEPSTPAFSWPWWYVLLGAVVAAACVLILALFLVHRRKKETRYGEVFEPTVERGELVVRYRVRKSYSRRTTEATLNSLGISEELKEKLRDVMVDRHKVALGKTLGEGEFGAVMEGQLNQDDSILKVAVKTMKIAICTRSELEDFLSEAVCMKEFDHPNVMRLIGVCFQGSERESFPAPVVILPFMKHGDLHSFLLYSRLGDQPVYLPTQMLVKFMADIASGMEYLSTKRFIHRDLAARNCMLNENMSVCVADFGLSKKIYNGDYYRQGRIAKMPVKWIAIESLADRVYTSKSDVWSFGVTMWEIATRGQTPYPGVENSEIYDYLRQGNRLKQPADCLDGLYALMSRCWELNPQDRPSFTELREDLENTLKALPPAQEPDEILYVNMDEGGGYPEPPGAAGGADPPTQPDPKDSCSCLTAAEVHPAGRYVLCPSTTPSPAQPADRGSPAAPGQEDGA
Briefly: Enzymatic assay (ADP-Glo kinase reaction), AXL. In outline: (§1)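 For both AXL and c-MET, reactions in tyrosine kinase buffer used 0.2 μg/μL poly(Glu4,Tyr1) and 10 μM ATP with serially diluted inhibitor, 60 min at room temperature. ADP formed was read by ADP-Glo luminescence after 40 min reagent incubation.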

In another assay the target is T2, MER (Homo sapiens, UniProt Q12866).
T2 sequence (Q12866 21-999): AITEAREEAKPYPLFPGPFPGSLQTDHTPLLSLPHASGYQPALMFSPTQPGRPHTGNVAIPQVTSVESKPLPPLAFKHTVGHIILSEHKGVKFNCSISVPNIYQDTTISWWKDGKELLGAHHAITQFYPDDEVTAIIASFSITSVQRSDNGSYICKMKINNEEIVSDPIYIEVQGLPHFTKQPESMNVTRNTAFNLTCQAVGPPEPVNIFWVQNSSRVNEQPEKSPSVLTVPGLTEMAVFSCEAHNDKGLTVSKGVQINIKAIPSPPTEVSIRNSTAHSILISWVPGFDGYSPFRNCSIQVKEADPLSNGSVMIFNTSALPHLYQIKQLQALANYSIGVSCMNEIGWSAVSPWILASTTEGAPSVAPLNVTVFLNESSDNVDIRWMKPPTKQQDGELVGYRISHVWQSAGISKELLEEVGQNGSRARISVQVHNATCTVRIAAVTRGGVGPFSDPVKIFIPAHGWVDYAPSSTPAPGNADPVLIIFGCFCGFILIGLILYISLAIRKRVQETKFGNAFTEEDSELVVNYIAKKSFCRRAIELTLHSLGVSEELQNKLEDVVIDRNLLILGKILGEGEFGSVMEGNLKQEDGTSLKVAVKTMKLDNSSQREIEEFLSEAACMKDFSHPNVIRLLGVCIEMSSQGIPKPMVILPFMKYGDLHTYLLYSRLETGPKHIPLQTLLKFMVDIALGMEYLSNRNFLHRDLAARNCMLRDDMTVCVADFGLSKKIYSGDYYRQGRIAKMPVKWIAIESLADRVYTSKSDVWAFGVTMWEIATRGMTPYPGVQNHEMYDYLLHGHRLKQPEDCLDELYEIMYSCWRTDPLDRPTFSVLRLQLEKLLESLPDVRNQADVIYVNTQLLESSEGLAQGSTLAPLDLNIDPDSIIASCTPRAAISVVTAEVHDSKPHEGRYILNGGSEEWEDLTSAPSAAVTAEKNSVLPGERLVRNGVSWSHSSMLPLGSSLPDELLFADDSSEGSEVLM
The assay can be described thus: Enzymatic assay (ADP-Glo kinase reaction), MER. In outline: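 ADP-Glo luminescence assay of MER in tyrosine kinase buffer with 0.2 μg/μL poly(Glu4,Tyr1) substrate and 10 μM ATP. Serially diluted inhibitor reacted 60 min at room temperature. IC50 taken from luminescence after ADP-Glo and detection steps.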

In the next assay the target is c-MET (Homo sapiens, UniProt P08581). Briefly: Enzymatic assay (ADP-Glo kinase reaction), c-MET. The essentials:
as §1

The IC50 is the concentration at which inhibition is half-maximal. A higher IC50 goes with lower potency.

Sequence of c-MET (P08581 25-1390): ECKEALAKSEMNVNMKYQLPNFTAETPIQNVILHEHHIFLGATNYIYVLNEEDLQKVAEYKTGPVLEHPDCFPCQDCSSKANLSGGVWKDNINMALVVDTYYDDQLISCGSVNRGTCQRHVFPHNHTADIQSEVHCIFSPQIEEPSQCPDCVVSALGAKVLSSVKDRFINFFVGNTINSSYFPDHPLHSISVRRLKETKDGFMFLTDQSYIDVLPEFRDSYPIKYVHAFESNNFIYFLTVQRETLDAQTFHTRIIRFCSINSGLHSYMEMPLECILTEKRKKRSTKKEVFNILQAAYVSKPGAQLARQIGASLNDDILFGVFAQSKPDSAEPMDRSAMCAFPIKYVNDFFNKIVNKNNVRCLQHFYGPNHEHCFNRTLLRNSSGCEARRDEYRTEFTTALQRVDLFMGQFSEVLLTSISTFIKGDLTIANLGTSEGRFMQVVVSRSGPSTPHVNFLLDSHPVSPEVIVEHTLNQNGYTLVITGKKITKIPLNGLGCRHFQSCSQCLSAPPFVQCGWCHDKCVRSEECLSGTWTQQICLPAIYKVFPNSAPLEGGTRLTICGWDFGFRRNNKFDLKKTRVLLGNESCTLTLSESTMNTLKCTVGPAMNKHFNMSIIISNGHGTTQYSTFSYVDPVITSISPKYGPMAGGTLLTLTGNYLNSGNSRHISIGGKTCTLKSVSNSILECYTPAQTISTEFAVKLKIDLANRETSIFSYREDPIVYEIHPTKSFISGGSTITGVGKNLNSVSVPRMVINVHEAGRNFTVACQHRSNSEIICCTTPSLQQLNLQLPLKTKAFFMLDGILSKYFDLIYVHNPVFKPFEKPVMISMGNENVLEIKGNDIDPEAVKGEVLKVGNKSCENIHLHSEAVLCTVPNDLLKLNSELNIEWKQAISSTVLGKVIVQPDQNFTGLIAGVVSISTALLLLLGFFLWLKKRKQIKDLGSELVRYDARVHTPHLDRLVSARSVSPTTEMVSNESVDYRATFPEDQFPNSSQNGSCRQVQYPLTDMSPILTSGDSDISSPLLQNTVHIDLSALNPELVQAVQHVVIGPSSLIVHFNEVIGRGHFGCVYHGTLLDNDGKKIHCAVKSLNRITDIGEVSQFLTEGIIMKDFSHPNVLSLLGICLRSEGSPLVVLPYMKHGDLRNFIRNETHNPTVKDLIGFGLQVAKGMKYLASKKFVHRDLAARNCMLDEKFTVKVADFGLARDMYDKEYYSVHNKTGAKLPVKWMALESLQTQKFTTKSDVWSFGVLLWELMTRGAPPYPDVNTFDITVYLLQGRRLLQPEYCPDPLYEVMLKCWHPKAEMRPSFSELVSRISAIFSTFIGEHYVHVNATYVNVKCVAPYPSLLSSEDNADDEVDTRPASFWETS

Take `Cn1nc(C(=O)Nc2ccc(Oc3ccnc(N)c3C#CCN3CCOCC3)c(F)c2)c(=O)n(-c2ccc(F)cc2)c1=O` [Example 49, N-(4-(2-amino-3-(3-morpholinoprop-1-ynyl)pyridin-4-yloxy)-3-fluorophenyl)-4-(4-fluorophenyl)-2-methyl-3,5-dioxo-2,3,4,5-tetrahydro-1,2,4-triazine-6-carboxamide]: the values for the half-maximal inhibitory concentration (IC50) at AXL, on MER and at c-MET were below 100 nM, below 100 nM and below 1000 nM, respectively.

Regarding `CC(C)(C#Cc1c(Oc2ccc(NC(=O)c3c[nH]c(=O)n(-c4ccc(F)cc4)c3=O)cc2F)ccnc1N)N1CCOCC1` [Example 50, N-(4-(2-amino-3-(3-methyl-3-morpholinobut-1-ynyl)pyridin-4-yloxy)-3-fluorophenyl)-3-(4-fluorophenyl)-2,4-dioxo-1,2,3,4-tetrahydropyrimidine-5-carboxamide], the concentration for half-maximal inhibition (IC50) on AXL was below 10 nM; at MER it was below 100 nM; against c-MET, below 100 nM.

`Nc1nccc(Oc2ccc(NC(=O)c3c[nH]c(=O)n(-c4ccc(F)cc4)c3=O)cc2F)c1C#CCN1CCOCC1` [Example 51, N-(4-(2-amino-3-(3-morpholinoprop-1-ynyl)pyridin-4-yloxy)-3-fluorophenyl)-3-(4-fluorophenyl)-2,4-dioxo-1,2,3,4-tetrahydropyrimidine-5-carboxamide]: the 50% inhibitory concentration (IC50) on AXL, against MER and against c-MET was below 100 nM throughout.

Take `CC(C)(C#Cc1c(Oc2ccc(NC(=O)c3c[nH]c(=O)n(-c4ccc(F)cc4)c3=O)cc2F)ccnc1N)N1CCNCC1` [Example 52, N-(4-(2-amino-3-(3-methyl-3-(piperazin-1-yl)but-1-ynyl)pyridin-4-yloxy)-3-fluorophenyl)-3-(4-fluorophenyl)-2,4-dioxo-1,2,3,4-tetrahydropyrimidine-5-carboxamide]: the IC50 against AXL is below 100 nM; against MER, below 100 nM; against c-MET, below 1000 nM.

For the compound `Nc1nccc(Oc2ccc(NC(=O)c3c[nH]c(=O)n(-c4ccc(F)cc4)c3=O)cc2F)c1C#CCC1CCNCC1` [Example 53, N-(4-(2-amino-3-(3-(piperidin-4-yl)prop-1-ynyl)pyridin-4-yloxy)-3-fluorophenyl)-3-(4-fluorophenyl)-2,4-dioxo-1,2,3,4-tetrahydropyrimidine-5-carboxamide], the results for the IC50 against AXL, at MER and against c-MET were below 10 nM, below 10 nM and below 100 nM, respectively.

Take `CN1CCC(CC#Cc2c(Oc3ccc(NC(=O)c4c[nH]c(=O)n(-c5ccc(F)cc5)c4=O)cc3F)ccnc2N)CC1` [Example 54, N-(4-(2-amino-3-(3-(1-methylpiperidin-4-yl)prop-1-ynyl)pyridin-4-yloxy)-3-fluorophenyl)-3-(4-fluorophenyl)-2,4-dioxo-1,2,3,4-tetrahydropyrimidine-5-carboxamide]: the IC50 against AXL was below 10 nM; at MER, below 100 nM; against c-MET it was below 10 nM.

Take `CC(C)(C#Cc1c(Oc2ccc(NC(=O)c3cn(C4CCOCC4)c(=O)n(-c4ccc(F)cc4)c3=O)cc2F)ccnc1N)N1CCOCC1` [Example 55, N-(4-(2-amino-3-(3-methyl-3-morpholinobut-1-ynyl)pyridin-4-yloxy)-3-fluorophenyl)-3-(4-fluorophenyl)-2,4-dioxo-1-(tetrahydro-2H-pyran-4-yl)-1,2,3,4-tetrahydropyrimidine-5-carboxamide]: the IC50 at AXL, at MER and at c-MET was below 100 nM each time.

With `Nc1nccc(Oc2ccc(NC(=O)c3cn(C4CCOCC4)c(=O)n(-c4ccc(F)cc4)c3=O)cc2F)c1C#CCN1CCOCC1` [Example 56, N-(4-(2-amino-3-(3-morpholinoprop-1-ynyl)pyridin-4-yloxy)-3-fluorophenyl)-3-(4-fluorophenyl)-2,4-dioxo-1-(tetrahydro-2H-pyran-4-yl)-1,2,3,4-tetrahydropyrimidine-5-carboxamide], the IC50 on AXL, against MER and against c-MET was below 100 nM each time.

For `CN1CCN(C(C)(C)C#Cc2c(Oc3ccc(NC(=O)c4cn(C5CCOCC5)c(=O)n(-c5ccc(F)cc5)c4=O)cc3F)ccnc2N)CC1` [Example 57, N-(4-(2-amino-3-(3-methyl-3-(4-methylpiperazin-1-yl)but-1-ynyl)pyridin-4-yloxy)-3-fluorophenyl)-3-(4-fluorophenyl)-2,4-dioxo-1-(tetrahydro-2H-pyran-4-yl)-1,2,3,4-tetrahydropyrimidine-5-carboxamide], the IC50 on AXL is below 100 nM; at MER, below 10 nM; against c-MET, below 100 nM.

Take `CC(C)(C#Cc1c(Oc2ccc(NC(=O)c3cn(C4CCOCC4)c(=O)n(-c4ccc(F)cc4)c3=O)cc2F)ccnc1N)N1CCNCC1` [Example 58, N-(4-(2-amino-3-(3-methyl-3-(piperazin-1-yl)but-1-ynyl)pyridin-4-yloxy)-3-fluorophenyl)-3-(4-fluorophenyl)-2,4-dioxo-1-(tetrahydro-2H-pyran-4-yl)-1,2,3,4-tetrahydropyrimidine-5-carboxamide]: the 50% inhibitory concentration (IC50) against AXL was below 100 nM; on MER it was below 10 nM; on c-MET, below 100 nM.

As to `Nc1nccc(Oc2ccc(NC(=O)c3cn(C4CCOCC4)c(=O)n(-c4ccc(F)cc4)c3=O)cc2F)c1C#CCC1CCNCC1` [Example 59, N-(4-(2-amino-3-(3-(piperidin-4-yl)prop-1-ynyl)pyridin-4-yloxy)-3-fluorophenyl)-3-(4-fluorophenyl)-2,4-dioxo-1-(tetrahydro-2H-pyran-4-yl)-1,2,3,4-tetrahydropyrimidine-5-carboxamide], the values for the IC50 at AXL, on MER and against c-MET were below 100 nM, below 10 nM and below 100 nM, respectively.

Consider `CN1CCC(CC#Cc2c(Oc3ccc(NC(=O)c4cn(C5CCOCC5)c(=O)n(-c5ccc(F)cc5)c4=O)cc3F)ccnc2N)CC1` [Example 60, N-(4-(2-amino-3-(3-(1-methylpiperidin-4-yl)prop-1-ynyl)pyridin-4-yloxy)-3-fluorophenyl)-3-(4-fluorophenyl)-2,4-dioxo-1-(tetrahydro-2H-pyran-4-yl)-1,2,3,4-tetrahydropyrimidine-5-carboxamide], for which the half-inhibitory concentration (IC50) was below 10 nM against AXL, below 10 nM on MER and below 100 nM against c-MET.

Take `C=CCn1cc(C(=O)Nc2ccc(Oc3ccnc(N)c3C#CCN3CCOCC3)c(F)c2)c(=O)n(CC=C)c1=O` [Example 67, 1,3-diallyl-N-(4-(2-amino-3-(3-morpholinoprop-1-ynyl)pyridin-4-yloxy)-3-fluorophenyl)-2,4-dioxo-1,2,3,4-tetrahydropyrimidine-5-carboxamide]: the IC50 was below 10 nM on AXL, below 10 nM at MER and below 100 nM at c-MET.
